The values that follow come from US11555036B2, “FGFR4 inhibitor, preparation method therefor and pharmaceutical use thereof” (Abbisko Therapeutics Co., Ltd., priority 2016, dated 2023).

Assay [1] has as its system Huh7 hepatocellular carcinoma cells. Kind of assay: FGFR4 cell proliferation experiment, Cell Titer Glo (CTG). The assay is classed as cell-based. The conditions noted are these: Homo sapiens, Huh-7, 72 h, HuH-7 cells, 3 days; for IC50: concentration leading to absolute half growth inhibition; for EC50: concentration leading to half maximal growth inhibition. The protocol:
II. FGFR4 Cell Proliferation Experiment
Cell Titer Glo (CTG) experiment was used in the present invention to evaluate the functional effects of the compounds on cell proliferation. […] Compound-mediated inhibition of cell proliferation/survival was assessed by quantification of cellular ATP levels using CTG reagent (Promega, #G7573). The specific experimental procedure was as follows:
2. 10 μL of medium containing a compound concentration of 10 fold of its final test concentration was added;
3. The dose effect was evaluated by a 5-fold serial dilution of the test compound, starting from 10 μM.
4. After cells incubation for 3 days at 37° C. under 5% CO2, the effect of the inhibitor on cell proliferation was quantified after adding 50 μL of CTG and testing with luminescence.
(ATP-based viability assays read luminescence as a measure of living cells.)

A further assay deals with FGFR4 (Homo sapiens, UniProt P22455). The assay is described as follows: FGFR4 Caliper Assay (in vitro biochemical kinase analysis of FGFR4). The conditions noted are these: read-out: Enzymatic activity FGFR4 IC50. The protocol:
I. In Vitro Biochemical Kinase Analysis of FGFR4
FGFR4 Caliper Assay was used in the present invention to determine the inhibitory activities of the compounds against FGFR4. The detailed experimental procedure was as follows.
2. A reaction system is a mixture solution of 50 mM HEPES, pH 7.5, 1 mM DTT, 0.02% Tween 20, 0.02% BSA, 0.6% DMSO, 10 mM beta glycerol phosphate and 10 μM sodium orthovanadate and 16 mM MgCl2.
3. The reaction system was incubated at 30° C. for 40 minutes.
4. The reaction was terminated by adding a stop solution (100 mM HEPES, pH 7.5, 5% DMSO, 0.1% Caliper coating reagent, 10 mM EDTA and 0.015% Brij35).
5. The culture plate with the terminated kinase reaction was transferred to the Caliper LC 3000 workstation to read the data, the phosphorylated and unphosphorylated peptides were separated by using the Caliper microfluid migration shift technique, and the analyte was transferred by allowing a constant buffer flow through the chip, the migration of the substrate peptide was monitored by the labeled fluorescent signal, and the kinase activity was calculated by using the amount of the phosphate-based peptide formed.
6. Finally, IC50 values were determined by non-linear regression analysis of percent inhibition at different compound concentrations.

In general, IC50 refers to the concentration needed to halve the response being measured. In general, EC50 refers to the midpoint of the concentration-response curve. Read a high EC50 as a less potent agent.

Sequence of FGFR4 (P22455 22-802): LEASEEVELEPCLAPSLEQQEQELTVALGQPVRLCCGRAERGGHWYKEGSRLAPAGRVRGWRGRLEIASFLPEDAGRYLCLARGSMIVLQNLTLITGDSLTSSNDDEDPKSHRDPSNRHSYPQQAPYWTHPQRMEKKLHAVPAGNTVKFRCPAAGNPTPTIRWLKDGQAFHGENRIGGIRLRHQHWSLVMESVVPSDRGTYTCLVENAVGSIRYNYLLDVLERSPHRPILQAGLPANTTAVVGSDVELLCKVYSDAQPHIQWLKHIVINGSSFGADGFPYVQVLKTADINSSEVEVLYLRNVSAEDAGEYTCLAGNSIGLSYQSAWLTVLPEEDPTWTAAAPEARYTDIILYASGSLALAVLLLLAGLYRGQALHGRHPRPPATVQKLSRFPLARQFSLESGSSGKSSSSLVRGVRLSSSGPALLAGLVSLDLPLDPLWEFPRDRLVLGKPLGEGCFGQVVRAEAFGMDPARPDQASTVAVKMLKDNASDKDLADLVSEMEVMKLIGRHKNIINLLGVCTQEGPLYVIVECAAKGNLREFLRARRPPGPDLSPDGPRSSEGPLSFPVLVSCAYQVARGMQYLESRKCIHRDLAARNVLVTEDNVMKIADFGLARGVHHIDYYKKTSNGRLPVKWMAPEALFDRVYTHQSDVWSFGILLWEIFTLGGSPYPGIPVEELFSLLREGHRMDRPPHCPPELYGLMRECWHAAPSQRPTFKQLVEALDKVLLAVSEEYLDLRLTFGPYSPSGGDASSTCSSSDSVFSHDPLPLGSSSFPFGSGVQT

On to `C=CC(=O)N[C@H]1COC[C@H]1Nc1ncc2cc(-c3c(Cl)c(OC)cc(OC)c3Cl)nc(NC3CCOC3)c2n1` (stereo partly drawn) [Example 443, N-((3R,4S)-4-((6-(2,6-dichloro-3,5-di-methoxyphenyl)-8-((tetrahydrofuran-3-yl)amino)pyrido[3,4-d]pyrimidin-2-yl)amino)tetrahydrofuran-3-yl) acrylamide], for which, in assay [1], half-maximal inhibition (IC50) required 70.8 nM and the half-maximal effective concentration (EC50) came to 15.9 nM. The IC50 at FGFR4 came out at 8.2 nM.
In assay [1], `C=CC(=O)N[C@H]1COC[C@H]1Nc1ncc2cc(-c3c(Cl)c(OC)cc(OC)c3Cl)nc(NC3CC(F)(F)C3)c2n1` [Example 452, N-((3R,4S)-4-((6-(2,6-dichloro-3,5-di-methoxyphenyl)-8-((3,3-difluorocyclo-butyl)amino)pyrido[3,4-d]pyrimidin-2-yl)amino)tetrahydrofuran-3-yl) acrylamide] yielded a half-inhibitory concentration (IC50) of 53.3 nM and an EC50 of 20.3 nM. Besides, at FGFR4, the IC50 was found to be 42.2 nM.
In the same order, the values of `C=CC(=O)N[C@H]1COC[C@H]1Nc1ncc2cc(-c3c(Cl)c(OC)cc(OC)c3Cl)nc(NCC3CCCC3)c2n1` [Example 454, N-((3R,4S)-4-((8-((cyclopentylmeth-yl)amino)-6-(2,6-dichloro-3,5-dimeth-oxyphenyl)pyrido[3,4-d]pyrimidin-2-yl)amino)tetrahydrofuran-3-yl)acryl-amide] are 89.2 nM, 40.8 nM and 66.9 nM.
The corresponding values for `C=CC(=O)N[C@H]1COC[C@H]1Nc1ncc2cc(-c3c(Cl)c(OC)cc(OC)c3Cl)nc(NCCc3ccccc3)c2n1` [Example 456, N-((3R,4S)-4-((6-(2,6-dichloro-3,5-di-methoxyphenyl)-8-(phenethylamino)pyrido[3,4-d]pyrimidin-2-yl)amino)tetrahydrofuran-3-yl)acrylamide] are 299 nM, 163 nM and 82.4 nM.
The corresponding values for `C=CC(=O)N[C@H]1COC[C@H]1Nc1ncc2cc(-c3c(Cl)c(OC)cc(OC)c3Cl)nc(NCc3cnn(C)c3)c2n1` [Example 459, N-((3R,4S)-4-((6-(2,6-dichloro-3,5-di-methoxyphenyl)-8-(((1-methyl-1H-pyrazol-4-yl)methyl)amino)pyrido[3,4-d]pyrimidin-2-yl)amino)tetrahydro-furan-3-yl)acrylamide] are 58 nM, 23.8 nM and 17.3 nM.
`C=CC(=O)N[C@H]1COC[C@H]1Nc1ncc2cc(-c3c(Cl)c(OC)cc(OC)c3Cl)nc(NCC(C)(C)C)c2n1` [Example 462, N-((3R,4S)-4-((6-(2,6-dichloro-3,5-di-methoxyphenyl)-8-(neopentylamino)pyrido[3,4-d]pyrimidin-2-yl)amino)tetrahydrofuran-3-yl)acrylamide]: in assay [1], half-maximal inhibition (IC50) was put at 38.3 nM and the midpoint of the response, the EC50, lay at 24.6 nM. Also, the IC50 at FGFR4 turned out to be 14.5 nM.
The corresponding values for `C=CC(=O)N[C@H]1COC[C@H]1Nc1ncc2cc(-c3cc(OC)cc(OC)c3Cl)nc(NCC3CC3)c2n1` [Example 475, N-((3R,4S)-4-((6-(2-chloro-3,5-dimeth-oxyphenyl)-8-((cyclopropylmethyl)a-mino)pyrido[3,4-d]pyrimidin-2-yl)a-mino)tetrahydrofuran-3-yl)acrylamide] are 678 nM, 132 nM and 62 nM.
The corresponding values for `C=CC(=O)N[C@H]1COC[C@H]1Nc1ncc2cc(-c3c(Cl)c(OC)cc(OC)c3Cl)nc(OCC3CC3)c2n1` [Example 498, N-((3R,4S)-4-((8-(cyclopropylmethoxy)-6-(2,6-dichloro-3,5-dimethoxyphen-nyl)pyrido[3,4-d]pyrimidin-2-yl)amino)tetrahydrofuran-3-yl)acrylamide] are above 10000 nM, 2390 nM and 8800 nM.
With `C=CC(=O)N[C@H]1CCOC[C@H]1Nc1ncc2cc(-c3c(Cl)c(OC)cc(OC)c3Cl)nc(NCC3CC3)c2n1` [Example 501, N-((3S,4S)-3-((8-((cyclopropylmeth-yl)amino)-6-(2,6-dichloro-3,5-dimeth-oxyphenyl)pyrido[3,4-d]pyrimidin-2-yl)amino)tetrahydro-2H-pyran-4-yl)acrylamide], in assay [1], the midpoint of inhibition, the IC50, lay at 49.9 nM and the 50% effective concentration (EC50) is 17.8 nM. In addition, at FGFR4, the 50% inhibitory concentration (IC50) came out at 15.7 nM.
The corresponding values for `C=CC(=O)N[C@H]1COC[C@H]1Nc1ncc2cc(-c3c(Cl)c(OC)cc(OC)c3Cl)nc(C)c2n1` [Example 606, N-((3R,4S)-4-((6-(2,6-dichloro-3,5-di-methoxyphenyl)-8-methylpyrido[3,4-d]pyrimidin-2-yl)amino)tetrahydro-furan-3-yl)acrylamide] are 41.1 nM, 25.7 nM and 23.4 nM.
In assay [1], `C=CC(=O)N[C@H]1COC[C@H]1Nc1ncc2cc(-c3c(Cl)c(OC)cc(OC)c3Cl)nc(-c3cnn(C)c3)c2n1` [Example 629, N-((3R,4S)-4-((6-(2,6-dichloro-3,5-di-methoxyphenyl)-8-(1-methyl-1H-pyrazol-4-yl)pyrido[3,4-d]pyrimidin-2-yl)amino)tetrahydrofuran-3-yl)acryl-amide] displayed an IC50 of 4 nM and an EC50 of 2.6 nM. Further, the IC50 on FGFR4 is 2.9 nM.
The corresponding values for `C=CC(=O)N[C@H]1COC[C@H]1Nc1ncc2cc(-c3c(F)c(OC)cc(OC)c3F)nc(-c3cnn(C)c3)c2n1` [Example 637, N-((3R,4S)-4-((6-(2,6-difluoro-3,5-dimethoxyphenyl)-8-(1-methyl-1H-py-razol-4-yl)pyrido[3,4-d]pyrimidin-2-yl)amino)tetrahydrofuran-3-yl)acryl-amide] are 17.3 nM, 10.1 nM and 4.2 nM.
Consider `C=CC(=O)N[C@H]1COC[C@H]1Nc1ncc2cc(-c3c(Cl)c(OC)cc(OC)c3Cl)nc(NC3CC3)c2n1` [Example 655, N-((3R,4S)-4-((8-(cyclopropylamino)-6-(2,6-dichloro-3,5-dimethoxyphen-yl)pyrido[3,4-d]pyrimidin-2-yl)amino)tetrahydrofuran-3-yl)acrylamide], for which the values for the IC50 (in assay [1]; at FGFR4) were 68.4 nM and 8 nM, respectively. Also, in assay [1], the concentration giving a half-maximal response (EC50) was 28 nM.
The corresponding values for `C=CC(=O)N[C@H]1COC[C@H]1Nc1ncc2cc(-c3c(Cl)c(OC)cc(OC)c3Cl)nc(N3CCC3)c2n1` [Example 657, N-((3R,4S)-4-((8-(azetidin-1-yl)-6-(2,6-dichloro-3,5-dimethoxyphenyl)py-rido[3,4-d]pyrimidin-2-yl)amino)tetra-hydrofuran-3-yl)acrylamide] are 13.3 nM, 6.5 nM and 9.6 nM.
The corresponding values for `C=CC(=O)N[C@H]1COC[C@H]1Nc1ncc2cc(-c3c(Cl)c(OC)cc(OC)c3Cl)nc(N3CC(OC)C3)c2n1` [Example 658, N-((3R,4S)-4-((6-(2,6-dichloro-3,5-dimethoxyphenyl)-8-(3-methoxyazeti-din-1-yl)pyrido[3,4-d]pyrimidin-2-yl)amino)tetrahydrofuran-3-yl)acryl-amide] are 15.1 nM, 4.8 nM and 11.4 nM.
In assay [1], `C=CC(=O)N[C@H]1COC[C@H]1Nc1ncc2cc(-c3c(F)c(OC)cc(OC)c3F)nc(N3CC(OC)C3)c2n1` [Example 659, N-((3R,4S)-4-((6-(2,6-difluoro-3,5-dimethoxyphenyl)-8-(3-methoxyazeti-din-1-yl)pyrido[3,4-d]pyrimidin-2-yl)a-mino)tetrahydrofuran-3-yl)acryl-amide] came in with an IC50 of 24.3 nM and an EC50 of 18 nM. In addition, the IC50 at FGFR4 stood at 6.6 nM.
The corresponding values for `C=CC(=O)N[C@H]1COC[C@H]1Nc1ncc2cc(-c3c(Cl)c(OC)cc(OC)c3Cl)nc(N3CC(F)(F)C3)c2n1` [Example 663, N-((3R,4S)-4-((6-(2,6-dichloro-3,5-dimethoxyphenyl)-8-(3,3-difluoroaze-tidin-1-yl)pyrido[3,4-d]pyrimidin-2-yl)amino)tetrahydrofuran-3-yl)acryl-amide] are 3.5 nM, 2.3 nM and 4.5 nM.
In the same order, the values of `C=CC(=O)N[C@H]1COC[C@H]1Nc1ncc2cc(-c3c(Cl)c(OC)cc(OC)c3Cl)nc(N3CC(C)(O)C3)c2n1` [Example 664, N-((3R,4S)-4-((6-(2,6-dichloro-3,5-dimethoxyphenyl)-8-(3-hydroxy-3-meth-ylazetidin-1-yl)pyrido[3,4-d]pyrimi-din-2-yl)amino)tetrahydrofuran-3-yl)acrylamide] are 4.9 nM, 3.7 nM and 4.9 nM.
